Experimental data from patent US7989495B2, “Compositions and methods for inhibiting NF-κB mediated tumorigenicity and adhesion dependent survival of cancer cells” (University of Utah Research Foundation, priority 2002, dated 2011).
Entries after “also recorded” stand apart in the source; their conditions may differ.

Assays:
[1] = tested on: HCT-116 colon cancer cell line; assay: Cell proliferation assay (crystal violet, 590 nm); format: cell-based
Protocol: (§1) DLD-1, HCT-116, and HT-29 colon cancer cell lines were obtained from the ATCC collection and were cultured in Dulbecco's Modification of Eagle's Medium supplemented with 10% fetal bovine serum, glutamine, penicillin, and streptomycin. 293 cells stably transfected with COX-2 (293-COX-2) under the control of a ponasterone sensitive promoter were cultured in Dulbecco's Modification of Eagle's Medium supplemented with 10% fetal bovine serum, 400 μg/ml of zeocin, 400 μg/ml of G418, glutamine, penicillin, and streptomycin. For induction of COX-2 protein expression, 293-COX-2 cells were cultured for 48 hours in media supplemented with 1 μg/ml of ponasterone. All cells were cultured at 37° C. in a humidified incubator with a 5% CO2 atmosphere.
(§2) For the cell proliferation assay, cells were dispersed and plated at 40,000 cells/well in 96-well dishes. At various days in culture, the cells were gently washed twice with 100 μl/well of ice-cold blocking buffer (1% radioimmunoassay grade BSA in PBS) and twice with 100 μl/well of ice-cold PBS. The cells were fixed for 10 min in 100% ice-cold methanol (100 μl/well), then allowed to air-dry. The cells were stained with 100μl/well of 0.1% crystal violet in H2O for 10 minutes, then washed gently four times with dd H20 and four times with PBS. The plates were then air-dried completely. The stained cells were then solubilized in 1% sodium deoxycholate, and the plates read at 590 nm in a spectrophotometer. The absorption at 590 nm is proportional to the number of attached cells.

[2] = tested on: DLD-1 colon cancer cell line; assay: Cell proliferation assay (crystal violet, 590 nm); format: cell-based
Protocol: as §1, §2

[3] = tested on: HT-29 xenografts; assay: Subcutaneous colon cancer xenograft in athymic mice; format: in vivo; conditions: for tumor volumes, treatment group compared with control group: HT-29 subcutaneous tumors, 1 mg/kg twice weekly for 28 days, vs DMSO
Protocol: DLD-1, HCT-116, and HT-29 cells were cultured for 6 days in soft agar in the presence of DMSO (control), 10 μM BAY 11-7082, or 10 μM BAY 11-7085. The data points represent the means of colony counts per field (20×) performed in 5 different regions of the culture dishes. The data shown represent a typical result of two separate experiments. FIGS. 2B,C, show athymic mice received subcutaneous injections of HT-29 (B) or HCT-116 (C) cells, followed by […] of BAY 11-7085 (dark bars) or DMSO (white bars) intraperitoneally twice weekly. The bars represent the 25-75% ranges of the tumor volumes and the horizontal lines in the bars are the medians. Using the Kruskal-Wallace statistical test to compare the median tumor volumes between BAY 11-7085 and DMSO yielded a p-value of 0.005 for HT-29 cells but >0.05 for HCT-116 cells.
HT-29 and HCT-116 cells were harvested in 0.25% trypsin-PBS-EDTA, washed once in media and PBS, and resuspended in PBS at 1 million cells per 200 μL. One million cells were injected either subcutaneously in the backs or intraperitoneally in 5 week old female nu/nu athymic mice (Charles River Labs). For the mice with subcutaneous tumors, the tumors were allowed to establish themselves for 10 days after which they were randomized to BAY 11-7085 or DMSO. For the mice with intraperitoneal tumors, the mice received DMSO or BAY 11-7085 (5 mg/kg) 24 hours before the cancer cells were injected intrapentoneally. All mice received BAY 11-7085 (5 mg/kg) or an equal volume of DMSO (˜200 μL) twice weekly for 21-32 days. Subcutaneous tumor sizes were determined by measuring the length and width with calipers. These studies were approved by the U. of Utah Institutional Review Board and Institutional Animal Care and Use Committee and performed in the Animal Resource Center. Mice were euthanized when they experienced a greater than 10% loss in body weight or if they appeared ill. Post-mortem examinations included sectioning of kidney, lung, and liver tissues which were stained with hematoxylin and eosin followed by examination for tissue toxicity/damage by an experienced mouse pathologist (E.J.E.) who was blinded to therapy.
(Wang et al., 1999) However, BAY 11-7082 or BAY 11-7085 alone inhibit colon cancer xenograft growth in athymic mice. HC-116, and HT-29 cell lines were used to generate subcutaneous tumors in athymic female mice. The mice were subsequently randomized to be treated with vehicle (DMSO) alone or BAY 11-7085 1 mg/kg twice weekly for 28 days.

[4] = summary statement, concentration not given

| SMILES | inhibition of cell proliferation ([1]; 10 μM, cultured 8 days) | inhibition of cell proliferation ([2]; 10 μM, cultured 8 days) | p-value, Kruskal-Wallace test of median tumor volumes vs DMSO ([3]; HT-29, intraperitoneally twice weekly) | tumor volumes, treatment group compared with control group ([3]; 1 mg/kg) | inhibition of growth of cancer cell line [1, 4] | inhibition of growth of cancer cell line [2, 4] | tumor volumes, treatment group compared with control group [3] |
| --- | --- | --- | --- | --- | --- | --- | --- |
| CC(C)(C)c1ccc(S(=O)(=O)/C=C/C#N)cc1 [BAY 11-7085, (2E)-3-[4-(tertiarybutylphenyl)sulfonyl]-2-propenenitrile] | greatly inhibited cell proliferation | greatly inhibited cell proliferation | 0.005 | statistically significant overall reduction in the tumor volumes; also recorded: reduce tumor volumes |  |  |  |
| Cc1ccc(S(=O)(=O)/C=C/C#N)cc1 [BAY 11-7082, (2E)-3-(tolysulfonyl)-2-propenenitrile] |  |  |  |  | inhibits growth | inhibits growth | reduce tumor volumes |
